Experimental data published in patent US20250255994A1, “DIMERIC IMMUNOCONJUGATES FOR USE IN TREATING CANCERS AND METHODS OF USE” (Medicovestor, Inc., priority 2023, published 2025).
“Also recorded” adds a separate entry of the source. Starred links: 1 amine or outer side, 2 acyl side, 3 side chain; linkers in the order of their positions; H or OH if unused. Non-standard residues stand in square brackets, D forms with d. Residues, ends and D or L forms follow the SMILES beside them. *: point of attachment. Exatecan = CC[C@@]1(O)C(=O)OCc2c1cc1n(c2=O)Cc2c-1nc1cc(F)c(C)c3c1c2[C@@H](N*)CC3; Hexanoyl(6-maleimido) = O=C1C=CC(=O)N1CCCCCC(=O)*; NHCH2OCH2CO = O=C(COCN[*:1])[*:2]

Experiments:
ID8 cells = assay: ID8 cytotoxicity assay, Example 4; type: cell-based, mouse; details: 3 additional days, FIG. 10 axis: percent cytotoxicity
Experimental: […] The cells were then treated with various concentrations of either the SP17-AB2 antibody, the SP17-AB2-DXD immunoconjugate, hIgG4, or deruxtecan alone. The cells were incubated for 3 additional days, and then cytotoxicity was measured.

SK-OV-3 cells [1] = assay: SK-OV-3 cytotoxicity assay (luminescence), Example 4; details: 5 or 6 additional days; for Max Cytotoxicity: FIG. 9 axis: percent cytotoxicity
Experimental: SK-OV-3 cells were seeded at 1000, 2000, or 3000 cells per well and incubated overnight in advance of a cytotoxicity assay. […] The SK-OV-3 cells were treated with various concentrations of the SP17-AB2 antibody, the SP17-AB2-DXD immunoconjugate, a control human IgG4 antibody (hIgG4), or deruxtecan alone (DXD). The cells were incubated for 5 or 6 additional days, and cytotoxicity was then measured using a luminescence assay and En Vision™ plate reader (PerkinElmer, Massachusetts, United States).

SK-OV-3 cells [2] = assay: SK-OV-3 cytotoxicity assay (luminescence), Example 9; type: cell-based, human; details: SK-OV-3 cells at 2000 cells/well; five additional days
Experimental: The SK-OV-3 cells are then treated with various concentrations of (1) the SP17-AB2 antibody, (2) the SP17-AB2-DXD immunoconjugate, (3) the SP17-AB2-Ozogamicin immunoconjugate, (4) both the SP17-AB2-DXD immunoconjugate and the SP17-AB2-Ozogamicin, (5) the dSP17-AB2-DXD/Ozogamicin immunoconjugate, (6) hdSP17-AB2, (7) hIgG4, or (8) deruxtecan. […] IC50s and maximum cytotoxicity are then determined.
The IC50 of (4) the combination of SP17-AB2-DXD and SP17-AB2-Ozogamicin is determined based on the concentration of SP17-AB2-DXD and SP17-AB2-Ozogamicin individually and not based on the combined concentration. For example, when SK-OV-3 cells are incubated at a concentration of SP17-AB2-DXD and SP17-AB2-Ozogamicin of 128 nanomolar each, then the IC50 is calculated based on the 128 nanomolar concentration (and not the 256 nanomolar combined concentration) so that 128 nanomolar of (4) SP17-AB2-DXD and SP17-AB2-Ozogamicin contains about the same concentration of deruxtecan, ozogamicin, and antigen-binding sites as 128 nanomolar of (5) the dSP17-AB2-DXD/Ozogamicin immunotherapeutic.

[3] = target: T1, recombinant 6His-Sp17 protein (human, UniProt Q15506 1-151); assay: surface plasmon resonance, 6His-Sp17 at 6.25-300 nanomolar as analyte
T1 construct: Analyte of the surface plasmon resonance experiment; not shown: 6His tag
T1 sequence (looked up): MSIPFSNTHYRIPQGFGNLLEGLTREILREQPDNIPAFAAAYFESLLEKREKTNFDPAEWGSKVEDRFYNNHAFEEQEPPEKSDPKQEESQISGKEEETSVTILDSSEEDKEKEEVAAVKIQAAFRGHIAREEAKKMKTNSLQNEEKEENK
Text: (§1) The lines correspond, from highest to lowest, to fitted cycles for 300 nanomolar, 100 nanomolar, 50 nanomolar, 25 nanomolar, 12.5 nanomolar, and 6.25 nanomolar concentrations of 6His-Sp17.
(§2) The nucleotide sequences encoding the VH and VL regions of Example 1 were cloned into a […] heavy chain gene and a mouse kappa light chain gene, respectively, and expressed in CHO-S cells to produce a mouse-human chimeric antibody, which was named chAB2. Successful generation of the antibody was confirmed by SDS-PAGE and western blotting using anti-mouse heavy and light chain antibodies and recombinant Sp17 protein (FIGS. 2 & 3). The chAB2 antibody was reactive to mouse surface Sp17 protein expressed on the mouse ovarian cancer cell line ID8 (FIG. 4).

[4] = target: T1, recombinant 6His-Sp17 protein; assay: surface plasmon resonance (Biacore T200), 6His-Sp17 at 6.25-300 nanomolar as analyte
Text: as §1, §2

33 normal human tissues = assay: Immunohistochemistry on a normal tissue microarray (specificity); type: binding
Experimental: The specificity of the chAB2 antibody for Sp17 was determined with immunohistochemistry on a normal tissue microarray, which consisted of 33 normal tissues obtained from 2-3 human donors per tissue. The normal tissues included brain, eye, adrenal gland, hypophyseal, thyroid, parathyroid, tonsil, thymus, spleen, heart, lung, larynx, esophagus, stomach, small intestine, colon, liver, pancreas, salivary gland, kidney, bone, skeletal, skin, peripheral nerve, mesothelial, breast, ovary, endometrium, cervix, testis, and prostate.

[5] = target: T2, mouse surface Sp17 protein expressed on the mouse ovarian cancer cell line ID8 (Mus musculus, UniProt Q62252); assay: Flow cytometry of ID8 cells labeled with chAB2 and anti-mouse FITC antibody; type: cell-based; details: relative to anti-mouse FITC antibody alone
T2 construct: mouse surface Sp17 protein expressed on the mouse ovarian cancer cell line ID8; endogenous in cells; host or cells: ID8 mouse ovarian cancer cells
T2 sequence (Q62252 1-149): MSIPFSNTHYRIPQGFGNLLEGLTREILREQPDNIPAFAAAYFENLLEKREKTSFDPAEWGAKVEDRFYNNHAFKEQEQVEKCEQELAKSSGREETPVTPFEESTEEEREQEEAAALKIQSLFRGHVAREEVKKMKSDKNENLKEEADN
Experimental: FIG. 4 consists of three panels. The left panel is a graph that depicts flow cytometry results for ID8 cells incubated with an anti-mouse fluorescein isothiocyanate (FITC) antibody, but without a primary antibody. The middle panel is a graph that depicts flow cytometry results for ID8 cells labeled with the anti-Sp17 antibody chAB2 and the anti-mouse FITC antibody.
as §2, with “3).” for “3). The chAB2 antibody was reactive to mouse surface Sp17 protein expressed on the mouse ovarian cancer cell line ID8 (FIG. 4).”

[6] = target: T3, recombinant 6His-Sp17 protein (Homo sapiens, UniProt Q15506); assay: Surface plasmon resonance (Biacore T200) of chAB2 binding to Sp17; details: SPR
T3 construct: 6His
T3 sequence (Q15506 1-151): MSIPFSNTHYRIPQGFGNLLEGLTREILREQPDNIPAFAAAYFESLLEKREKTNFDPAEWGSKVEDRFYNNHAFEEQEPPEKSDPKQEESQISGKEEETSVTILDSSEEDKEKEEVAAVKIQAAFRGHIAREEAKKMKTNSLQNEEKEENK
Text: as §1
as §2, with “3).” for “3). The chAB2 antibody was reactive to mouse surface Sp17 protein expressed on the mouse ovarian cancer cell line ID8 (FIG. 4).”

[7] = SK-OV-3 cells at 1000 cells/well
[8] = SK-OV-3 cells at 2000 cells/well
[9] = SK-OV-3 cells at 3000 cells/well

## CC[C@@]1(O)C(=O)OCc2c1cc1n(c2=O)Cc2c-1nc1cc(F)c(C)c3c1c2[C@@H](NC(=O)COCNC(=O)CNC(=O)[C@H](Cc1ccccc1)NC(=O)CNC(=O)CNC(=O)CCCCCN1C(=O)C=CC1=O)CC3 [deruxtecan] ({Hexanoyl(6-maleimido)}-GGFG[NHCH2OCH2CO]-Exatecan)
ID8 cells; ID8 cells at 250 cells/well
  Max Cytotoxicity: 94
ID8 cells; ID8 cells at 500 cells/well
  Max Cytotoxicity: 93
SK-OV-3 cells [1]; [7]
  IC50: 0.75 nM
  Max Cytotoxicity: 98
SK-OV-3 cells [1]; [8]
  IC50: 1.1 nM
  Max Cytotoxicity: 97
SK-OV-3 cells [1]; [9]
  IC50: 1.2 nM
  Max Cytotoxicity: 97
SK-OV-3 cells [2]
  Max Cytotoxicity: 97

B1: mouse-human chimeric anti-Sp17 IgG2a/kappa monoclonal antibody chAB2 (antibody, V domains shown)
VH: QVQLQQSGAEVKKPGSSVKVSCKASGGTFSSYAISWVRQAPGQGLEWMGRIIPILGIANYAQKFQGRVTITADKSTSTAYMELSSLRSEDTAVYYCARPSEEVVAAYGAFDIWGQGTTVTVSS
VL: EIVLTQSPLSLPVRPGEPASISCRASQSLLRSDGFNYLDWYLQKPGQSPQLLVYLGSNRASGVPDRFSGSGSGTDFTLKISRVEAEDVGVYYCMQAVQTPYIFGQGTKLEIK
notes: also called chimeric antibody; anti-Sp17 antibody chAB2
[3]
  koff: 0.00013 s⁻¹
  kon: 62600 M⁻¹ s⁻¹
[4]
  Kd: 2.07 nM

B2: chAB2: mouse-human chimeric anti-Sp17 antibody: human VH/VL in mouse IgG2a heavy chain and mouse kappa light chain, expressed in CHO-S cells (antibody, V domains shown)
VH: QVQLQQSGAEVKKPGSSVKVSCKASGGTFSSYAISWVRQAPGQGLEWMGRIIPILGIANYAQKFQGRVTITADKSTSTAYMELSSLRSEDTAVYYCARPSEEVVAAYGAFDIWGQGTTVTVSS
VL: EIVLTQSPLSLPVRPGEPASISCRASQSLLRSDGFNYLDWYLQKPGQSPQLLVYLGSNRASGVPDRFSGSGSGTDFTLKISRVEAEDVGVYYCMQAVQTPYIFGQGTKLEIK
33 normal human tissues; 33 normal tissues, 2-3 human donors per tissue
  binding to / cross-reactivity with normal tissues (immunohistochemistry): lack detectable cross-reactivity; also recorded: did not bind to normal tissues
33 normal human tissues; testis tissue
  binding to testis (immunohistochemistry): bound to testis
[5]
  reactivity to surface Sp17 on ID8 cells (mean fluorescent intensity): reactive to mouse surface Sp17 protein; also recorded: increased mean fluorescent intensity
[6]; 6.25-300 nanomolar 6His-Sp17
  association rate constant (ka): 62,600 per mole per second
[6]; read-out: dissociation constant (KD)
  Kd: ~2 nM
